PubChem BioAssay AID463223 (The Scripps Research Institute Molecular Screening Center, 2010)
Active and inactive are the calls of the source. No rule for the calls is given here.

These molecules were tested against Serine/threonine-protein phosphatase 5 (Homo sapiens) (UniProt P53041) (assay: PP5 inhibitors on phosphohistone substrate, late-stage follow-up, PP5 inhibitor project, biochemical, radiolabel, single concentration (AID 463223)). Conditions: purified PP5c, 33P-phosphohistone radiolabel assay, scintillation counting, 10 min; at 10 µM; hits give high values.
Serine/threonine-protein phosphatase 5 (Homo sapiens), sequence (P53041 whole entry, looked up): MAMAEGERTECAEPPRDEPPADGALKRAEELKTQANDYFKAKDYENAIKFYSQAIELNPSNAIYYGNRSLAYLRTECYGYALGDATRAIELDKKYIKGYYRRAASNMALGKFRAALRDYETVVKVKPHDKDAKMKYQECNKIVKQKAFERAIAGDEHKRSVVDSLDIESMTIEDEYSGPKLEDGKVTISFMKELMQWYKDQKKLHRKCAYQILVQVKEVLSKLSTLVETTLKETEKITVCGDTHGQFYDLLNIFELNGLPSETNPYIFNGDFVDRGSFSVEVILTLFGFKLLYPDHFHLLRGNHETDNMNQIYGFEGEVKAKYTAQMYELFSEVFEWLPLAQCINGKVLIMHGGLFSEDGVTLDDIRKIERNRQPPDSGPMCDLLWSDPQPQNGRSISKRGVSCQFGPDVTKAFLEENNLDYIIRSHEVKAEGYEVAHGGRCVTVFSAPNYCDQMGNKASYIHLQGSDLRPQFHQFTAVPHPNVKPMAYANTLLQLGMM

Compound	inhibition
CN1CCN(C(c2ccccn2)c2cc(Cl)c3cccnc3c2O)CC1 (centres undefined)	-2.91% (inactive)
COc1ccc(Sc2nc(-c3ccccn3)ncc2OC)cc1	1.12% (inactive)
Oc1cccc(/C=N/Nc2cc(N3CCCC3)nc(N3CCCC3)n2)c1	1.73% (inactive)
Clc1ccc(-n2nnnc2-c2cnc(-c3ccccn3)nc2-c2cccs2)cc1	-0.04% (inactive)
Cc1[nH]n(-c2ccccc2)c(=O)c1C(c1ccc([N+](=O)[O-])cc1)c1c(C)[nH]n(-c2ccccc2)c1=O	3.51% (inactive)
CCOC(=O)c1cnc(-n2cc(C)cn2)nc1NCc1ccc2c(c1)OCO2	-0.82% (inactive)
COc1cc(Br)c(C(=O)c2nccc3cc(OC)c(OC)cc23)cc1OC	1.9% (inactive)
Oc1ccccc1/C=N/Nc1cc(N2CCCC2)nc(N2CCCC2)n1	3.34% (inactive)
Cc1nnc(NC(=O)C2C3C=CC(O3)C2C(=O)O)s1 (centres undefined)	16%
CCOC(=O)c1sc2nc3c(SCC(=O)O)cc(C(=O)c4cc(F)ccc4O)cn3c(=O)c2c1C	14.5% (inactive)
O=C(NC1(O)C(=O)c2ccccc2C1=O)c1ccccc1	1.84% (inactive)
COc1ccc(Cl)cc1C(=O)Nc1cccc(-c2ccc3nncn3n2)c1	-1.12% (inactive)
COc1cnc(-c2ccccn2)nc1Sc1cccc(Cl)c1	-0.66% (inactive)
Nc1cc2nsnc2cc1Br	1.86% (inactive)
Cc1ccc(-n2nc(C(=O)O)cc2-c2ccc(Cl)cc2)cc1	1.91% (inactive)
COc1ccc(NC(=O)C2C3CCC(O3)C2C(=O)O)c(OC)c1 (centres undefined)	49.1%
CCOC(=O)c1cnc(-n2nc(C)cc2C)nc1NCc1ccccc1	3.11% (inactive)
COc1ccccc1Sc1nc(-c2ccccn2)ncc1OC	-2.42% (inactive)
O=S(=O)(Cc1cc(NCc2ccccc2)nc(-c2ccccn2)n1)c1ccccc1	8.88% (inactive)
CCOC(=O)c1sc(N2C(=O)C(O)=C(C(=O)c3ccco3)C2c2cccc([N+](=O)[O-])c2)nc1C (centres undefined)	9.04% (inactive)
CCOC(=O)c1cnc(-n2nc(C)cc2C)nc1NC1CCCCC1	1.15% (inactive)
O=C(O)C1C2CCC(O2)C1C(=O)NC1CCCCC1 (centres undefined)	45.9%

Compound	inhibition
COc1ccc2c(Cl)c(C(=O)N/N=C/c3ccc4c(c3)OCO4)sc2c1	-0.4% (inactive)
Nc1nc(-c2ccccn2)nc(N)c1Cc1ccc(Cl)cc1Cl	-1.92% (inactive)
O=C(O)c1n[nH]nc1-c1ccccc1	31.1%
Cc1ccc(C(=O)NC2(O)C(=O)c3ccccc3C2=O)cc1C	2.14% (inactive)
CCOC(=O)C1=C(C)OC2(O)c3ccccc3C(=O)C12O (centres undefined)	-1.47% (inactive)
O=C(O)c1cc(-c2ccc(Cl)cc2)n(-c2cccc(Cl)c2)n1	2.43% (inactive)
CCn1c2ccccc2c2cc(NC(=O)COC(=O)c3ccc(NC(=O)CC#N)cc3)ccc21	-0.66% (inactive)
O=C1CCCC2=C1C1(O)C(=O)c3ccccc3C1(O)O2 (centres undefined)	4.95% (inactive)
N#Cc1c(N2CCCC(O)C2)nc(N)c2c(N)nc3c(c12)CC(=O)N3C12CC3CC(CC(C3)C1)C2 (centres undefined)	-0.93% (inactive)
O=C(O)c1cc(-c2ccc(Cl)c(Cl)c2)n(-c2ccc(F)cc2)n1	-0.91% (inactive)
c1ccc(-c2nccc(-c3ccc(-n4cnc5ccccc54)cc3)n2)nc1	9.23% (inactive)
COc1cnc(-c2ccccn2)nc1Oc1cccc(C(F)(F)F)c1	-2.17% (inactive)
COc1cnc(-c2ccccn2)nc1Sc1ccc(Cl)cc1	-3.05% (inactive)
COc1cnc(-c2ccccn2)nc1Oc1cccc(Cl)c1	-1.35% (inactive)
COc1ccc(OCCCC(=O)Nc2nc(-c3ccccn3)cs2)cc1	-1.62% (inactive)
CC(C)(CS(=O)(=O)[O-])NC(=O)CC[N+](C)(C)CCO	2.71% (inactive)
O=C1Nc2ccccc2N2CCCC12 (centres undefined)	-0.58% (inactive)
CCCCN(CC)c1nc(N)c2c(N)nc(OCC)cc2c1C#N	2.68% (inactive)
CCCCn1c(NC(=O)c2ccco2)c(C(=O)OCC)c2nc3ccccc3nc21	2.8% (inactive)
Cc1ccc(C(=O)NNc2cc(N3CCCC3)nc(N3CCCC3)n2)cc1	0.83% (inactive)
c1ccc(Nc2nc(-c3ccccn3)cs2)cc1	-1.08% (inactive)
CCOC(=O)c1nn(-c2ccc(C)cc2)c(=O)c2c(N)scc12	0.85% (inactive)

Compound	inhibition
CC(=O)C(C(C)=O)C1(O)C(=O)c2ccccc2C1=O	2.52% (inactive)
O=C(NC1(O)C(=O)c2ccccc2C1=O)c1c(Cl)cccc1Cl	-1.34% (inactive)
O=C(O)c1cc(-c2ccc(Cl)c(Cl)c2)n(-c2ccccc2)n1	0.56% (inactive)
CCCN(CC1CC1)c1nc(N)c2c(N)nc(OC)cc2c1C#N	0.96% (inactive)
Oc1ccc(/C=N/Nc2cc(N3CCOCC3)nc(N3CCOCC3)n2)c(O)c1	0.87% (inactive)
COc1ccc(C(=O)c2nccc3cc(OC)c(OC)cc23)cc1OC	1.93% (inactive)
N#Cc1c(-c2ccc(Cl)cc2)cc(-c2cccs2)nc1SCC(=O)O	12.1% (inactive)
COc1cnc(-c2ccccn2)nc1Sc1ccccc1Cl	0.33% (inactive)
CCOC(=O)c1cnc(-n2nc(C)cc2C)nc1NC(C)c1ccccc1 (centres undefined)	0.17% (inactive)
CCOc1ccc(NC(=S)Nc2ccc3nsnc3c2)cc1	-0.34% (inactive)
COc1cnc(-c2ccccn2)nc1Sc1ccc(F)cc1	-3.12% (inactive)
COc1ccc(Cn2c(N)c(C(=O)NCc3ccco3)c3nc4ccccc4nc32)cc1OC	0.41% (inactive)
COc1cnc(-c2ccccn2)nc1Sc1ccccc1	-1.46% (inactive)
O=c1[nH]c(Nc2ccccc2)cc2ccccc12	0.47% (inactive)
O=C(Nc1nc(-c2ccccn2)cs1)C1CC(=O)N(c2ccc3c(c2)OCCO3)C1 (centres undefined)	-3.02% (inactive)
COc1ccc(CN2C(=O)Cc3c2nc(N)c2c(N)nc(N4CCCCC4)c(C#N)c32)cc1	-2.57% (inactive)
COc1cnc(-c2ccccn2)nc1Sc1ccc(C)cc1	-1.26% (inactive)
CCOC(=O)c1cnc(-n2nc(C)cc2C)nc1NCCc1ccccc1	0.06% (inactive)
O=C(NC1(O)C(=O)c2ccccc2C1=O)c1ccc(C(F)(F)F)cc1	-0.52% (inactive)
COc1ccc(NC(=S)Nc2ccc3nsnc3c2)cc1	-2.27% (inactive)
